Data reported in patent US20170275298A1, “INHIBITORS OF THE RENAL OUTER MEDULLARY POTASSIUM CHANNEL” (Merck Sharp & Dohme Corp., priority 2014, published 2017).

These compounds were tested against T1, hROMK (hKir1.1) (Homo sapiens, UniProt P48048) (assay: Thallium Flux Assay (ROMK channel functional thallium flux assay)). Conditions: HEK293 cells stably expressing hROMK (hKir1.1); FluxOR thallium flux, FLIPR-Tetra, 30 min compound incubation; read-out: ROMK TI IC50.
T1 construct: expressed in transfected cells
T1 sequence (P48048 1-391): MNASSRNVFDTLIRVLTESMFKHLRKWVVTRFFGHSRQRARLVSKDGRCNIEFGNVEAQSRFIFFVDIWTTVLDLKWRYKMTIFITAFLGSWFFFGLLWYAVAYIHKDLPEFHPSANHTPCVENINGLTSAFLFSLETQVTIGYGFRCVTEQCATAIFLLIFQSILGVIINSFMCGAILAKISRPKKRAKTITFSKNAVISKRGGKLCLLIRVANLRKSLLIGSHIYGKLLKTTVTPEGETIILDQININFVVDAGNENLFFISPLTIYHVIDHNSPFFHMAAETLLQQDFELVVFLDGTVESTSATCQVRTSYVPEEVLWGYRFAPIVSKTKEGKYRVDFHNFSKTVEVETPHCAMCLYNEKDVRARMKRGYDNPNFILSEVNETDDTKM
Type: cell-based
Summary of the method: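 HEK293 cells stably expressing hROMK (hKir1.1) loaded with FluxOR dye 90 min at ambient temperature, then compound 30 min before thallium/potassium stimulant (final 3 mM Tl/0.3 mM K). ROMK-sensitive flux defined by 3 μM standard inhibitor; data as % fluorescence change.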
`Cc1c([C@@H](O)CN2CCC3(CC2)CCN(c2cnc(Cl)cn2)CC3)ccc2c1COC2=O` [Example 132, (R)-5-(2-(9-(5-chloropyrazin-2-yl)-3,9-diazaspiro[5.5]undecan-3-yl)-1-hydroxyethyl)-4-methylisobenzofuran-1(3H)-one] gave an IC50 of 22.8 nM. `Cc1c([C@@H](O)CN2CCC3(CC2)CCN(c2nccnc2Cl)CC3)ccc2c1COC2=O` [Example 133, (R)-5-(2-(9-(3-chloropyrazin-2-yl)-3,9-diazaspiro[5.5]undecan-3-yl)-1-hydroxyethyl)-4-methylisobenzofuran-1(3H)-one] showed an IC50 of 274 nM. For `O[C@@H](CN1CCC2(CC1)CCN(c1cncc(Cl)n1)CC2)c1ccc(-n2cnnn2)nc1` [Example 134, (R)-1-(6-(1H-tetrazol-1-yl)pyridin-3-yl)-2-(9-(6-chloropyrazin-2-yl)-3,9-diazaspiro[5.5]undecan-3-yl)ethanol], the IC50 was 747 nM. Work on `O[C@@H](CN1CCC2(CC1)CCN(c1cnc(Cl)cn1)CC2)c1ccc(-n2cnnn2)nc1` [Example 135, (R)-1-(6-(1H-tetrazol-1-yl)pyridin-3-yl)-2-(9-(5-chloropyrazin-2-yl)-3,9-diazaspiro[5.5]undecan-3-yl)ethanol] yielded an IC50 of 875 nM. `Cc1c([C@@H](O)CN2CCC3(CC2)CCN(c2ncccn2)CC3)ccc2c1COC2=O` [Example 136, (R)-5-(1-hydroxy-2-(9-(pyrimidin-2-yl)-3,9-diazaspiro[5.5]undecan-3-yl)ethyl)-4-methylisobenzofuran-1(3H)-one] showed an IC50 of 330 nM. `Cc1c([C@@H](O)CN2CCC3(CC2)CCN(c2nccs2)CC3)ccc2c1COC2=O` [Example 137, (R)-5-(1-hydroxy-2-(9-(thiazol-2-yl)-3,9-diazaspiro[5.5]undecan-3-yl)ethyl)-4-methylisobenzofuran-1(3H)-one] showed an IC50 of 283 nM. With `O[C@@H](CN1CCC2(CC1)CCN(c1cc(Cl)cnn1)CC2)c1ccc(-n2cnnn2)nc1` [Example 138, (R)-1-(6-(1H-tetrazol-1-yl)pyridin-3-yl)-2-(9-(5-chloropyridazin-3-yl)-3,9-diazaspiro[5.5]undecan-3-yl)ethanol] the IC50 was 387 nM. With `Cc1c([C@@H](O)CN2CCC3(CC2)CCN(c2cccnn2)CC3)ccc2c1COC2=O` [Example 139, (R)-5-(1-hydroxy-2-(9-(pyridazin-3-yl)-3,9-diazaspiro[5.5]undecan-3-yl)ethyl)-4-methylisobenzofuran-1(3H)-one] the IC50 was 251 nM. `COC(=O)c1csc(N2CCC3(CCN(C[C@H](O)c4ccc5c(c4C)COC5=O)CC3)CC2)n1` [Example 140, (R)-methyl 2-(9-(2-hydroxy-2-(4-methyl-1-oxo-1,3-dihydroisobenzofuran-5-yl)ethyl)-3,9-diazaspiro[5.5]undecan-3-yl)thiazole-4-carboxylate] gave an IC50 of 364 nM. Work on `COc1cnc(N2CCC3(CCN(C[C@H](O)c4ccc5c(c4C)COC5=O)CC3)CC2)cn1` [Example 141, (R)-5-(1-hydroxy-2-(9-(5-methoxypyrazin-2-yl)-3,9-diazaspiro[5.5]undecan-3-yl)ethyl)-4-methylisobenzofuran-1(3H)-one] yielded an IC50 of 350 nM. With `Cc1c([C@@H](O)CN2CCC3(CC2)CCN(c2ccnnc2)CC3)ccc2c1COC2=O` [Example 142, (R)-5-(1-hydroxy-2-(9-(pyridazin-4-yl)-3,9-diazaspiro[5.5]undecan-3-yl)ethyl)-4-methylisobenzofuran-1(3H)-one] the IC50 was 170 nM.
